In patent publication US20240228488A1 (TAKEDA PHARMACEUTICAL COMPANY LIMITED, priority 2021, published 2024):

How the values were obtained:
plasma kallikrein = target: T1, plasma kallikrein (Homo sapiens, UniProt P03952); test: Neat human plasma assay, FXIIa contact pathway-activated, PFR-AMC substrate; format: biochemical; settings: citrated human plasma 78% final, 10 nM human FXIIa, 100 μM PFR-AMC; read-out: Human Plasma Assay: IC90
T1 construct: from tissue
How it was run: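 Citrated human plasma (78% final) with compound, contact-activated by 10 nM human FXIIa in pKal buffer pH 7.5, with 100 μM PFR-AMC. Fluorescence (360/480 nm) followed 5 min at room temperature; rates versus concentration fitted by 4-parameter equation for IC50/IC90.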

[1] = target: human activated kallikrein enzyme (Homo sapiens, UniProt P03952); test: Plasma kallikrein inhibition, fluorogenic PFR-AMC substrate, 500 pM activated kallikrein format; format: biochemical; settings: 500 pM activated kallikrein, 300 uM PFR-AMC, 30 min preincubation, 10 min reaction; read-out: Primary Dose Response Assay: Average EC50
Sequence of human activated kallikrein enzyme (P03952 391-638 limits assumed): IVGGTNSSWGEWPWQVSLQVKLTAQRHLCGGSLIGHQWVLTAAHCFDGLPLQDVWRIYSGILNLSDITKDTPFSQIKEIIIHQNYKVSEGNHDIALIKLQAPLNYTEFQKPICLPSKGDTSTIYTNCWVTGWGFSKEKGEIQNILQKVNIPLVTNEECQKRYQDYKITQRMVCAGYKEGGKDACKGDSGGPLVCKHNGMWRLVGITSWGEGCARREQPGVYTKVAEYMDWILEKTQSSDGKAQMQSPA
Sequence of human activated kallikrein enzyme (P03952 20-390 partner limits assumed): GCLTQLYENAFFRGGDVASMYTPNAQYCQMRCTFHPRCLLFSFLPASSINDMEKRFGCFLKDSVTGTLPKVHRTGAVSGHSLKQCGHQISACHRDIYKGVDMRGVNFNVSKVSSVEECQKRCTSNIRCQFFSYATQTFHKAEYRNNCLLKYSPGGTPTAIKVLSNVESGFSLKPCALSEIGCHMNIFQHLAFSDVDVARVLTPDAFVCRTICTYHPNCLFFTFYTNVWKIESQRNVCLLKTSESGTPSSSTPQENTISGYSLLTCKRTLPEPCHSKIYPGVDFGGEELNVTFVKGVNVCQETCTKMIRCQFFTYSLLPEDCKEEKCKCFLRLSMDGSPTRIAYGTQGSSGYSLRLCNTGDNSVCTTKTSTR
How it was run: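 Enzyme (500 pM) was preincubated with inhibitor for 30 min at room temperature in 20 mM Tris pH 7.5, 1 mM EDTA, 150 mM NaCl, 0.1% PEG-400 and 0.1% Triton X-100. The reaction was started with 300 uM PFR-AMC, run 10 min, and fluorescence read at 460 nm (380 nm excitation). EC50 derived.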

T1 sequence (P03952 391-638 limits assumed): as the sequence (P03952 391-638 limits assumed) above
T1 sequence (P03952 20-390 partner limits assumed): as the sequence (P03952 20-390 partner limits assumed) above

Row | IC90 (plasma kallikrein) | EC50 [1] | SMILES
1 | < 400 nM | < 1 nM | Cc1ccnc([C@H]2C[C@@H]2C(=O)Nc2cc(N[C@H](C)c3cn4cc(C5CC5)cc(N5CC6(COC6)CC5=O)c4n3)nc(C)n2)n1 [Example I-27, (1S,2S)—N-(6-(((R)-1-(6-cyclopropyl-8-(7-oxo-2-oxa-6-azaspiro[3.4]octan-6-yl)imidazo[1,2-a]pyridin-2-yl)ethyl)amino)-2-methylpyrimidin-4-yl)-2-(4-methylpyrimidin-2-yl)cyclopropane-1-carboxamide]
2 | 1500 to 10000 nM | < 1 nM | CC(=O)c1cc(C2CC2)cn2cc(CNc3ccnc(NC(=O)[C@H]4C[C@@H]4c4cccc(Cl)c4)c3)nc12 [Example I-237, (1S,2S)-N-(4-(((8-acetyl-6-cyclopropylimidazo[1,2-a]pyridin-2-yl)methyl)amino)pyridin-2-yl)-2-(3-chlorophenyl)cyclopropane-1-carboxamide]
3 | 1500 to 10000 nM | < 1 nM | O=C(Nc1cc(NCc2cn3cc(C4CC4)cc(N4CCSCC4=O)c3n2)ncn1)[C@H]1C[C@@H]1c1cccc(Cl)c1 [Example I-155, (1S,2S)-2-(3-chlorophenyl)-N-(6-(((6-cyclopropyl-8-(3-oxothiomorpholino)imidazo[1,2-a]pyridin-2-yl)methyl)amino)pyrimidin-4-yl)cyclopropane-1-carboxamide]
4 | 1500 to 10000 nM | 1 to 10 nM | CC1(C)CN(c2cc(C3CC3)cn3cc(CNc4cc(NC(=O)[C@H]5C[C@@H]5c5cccc(Cl)c5)ncn4)nc23)C(=O)O1 [Example I-199, (1S,2S)-2-(3-chlorophenyl)-N-(6-(((6-cyclopropyl-8-(5,5-dimethyl-2-oxooxazolidin-3-yl)imidazo[1,2-a]pyridin-2-yl)methyl)amino)pyrimidin-4-yl)cyclopropane-1-carboxamide]
5 | 400 to 1500 nM | < 1 nM | O=C(Nc1cc(NCc2cn3cc(C4CC4)cc(N4CCNCC4=O)c3n2)ncn1)[C@H]1C[C@@H]1c1cccc(Cl)c1 [Example I-647, (1S,2S)-2-(3-chlorophenyl)-N-(6-(((6-cyclopropyl-8-(2-oxopiperazin-1-yl)imidazo[1,2-a]pyridin-2-yl)methyl)amino)pyrimidin-4-yl)cyclopropane-1-carboxamide]
6 | 1500 to 10000 nM | < 1 nM | O=C(Nc1cc(NCc2cn3cc(C4CC4)cc(N4CCN(C5CC5)CC4)c3n2)ccn1)[C@H]1C[C@@H]1c1cccc(Cl)c1 [Example I-232, (1S,2S)-2-(3-chlorophenyl)-N-(4-(((6-cyclopropyl-8-(4-cyclopropylpiperazin-1-yl)imidazo[1,2-a]pyridin-2-yl)methyl)amino)pyridin-2-yl)cyclopropane-1-carboxamide]
7 | 1500 to 10000 nM | 1 to 10 nM | O=C(Nc1cc(NCc2cn3cc(C4CC4)cc(N4CCN5CC(O)CC5C4)c3n2)ncn1)[C@H]1C[C@@H]1c1cccc(Cl)c1 (stereo partly drawn) [Example I-196, (1S,2S)-2-(3-chlorophenyl)-N-(6-(((6-cyclopropyl-8-(7-hydroxyhexahydropyrrolo[1,2-a]pyrazin-2(1H)-yl)imidazo[1,2-a]pyridin-2-yl)methyl)amino)pyrimidin-4-yl)cyclopropane-1-carboxamide]

Continued, molecule first:

Row | SMILES | IC90 (plasma kallikrein) | EC50 [1]
8 | N#Cc1ccc(Cl)cc1[C@H]1C[C@@H]1C(=O)Nc1cc(NCc2cn3cc(C4CC4)cc(COCCO)c3n2)ccn1 (racemic) [Example 289, rac-(1S*,2S*)-2-(5-chloro-2-cyanophenyl)-N-(4-(((6-cyclopropyl-8-((2-hydroxyethoxy)methyl)imidazo[1,2-a]pyridin-2-yl)methyl)amino)pyridin-2-yl)cyclopropane-1-carboxamide] | 1500 to 10000 nM | < 1 nM
9 | Cc1ccnc([C@H]2C[C@@H]2C(=O)Nc2cc(NC(C)c3cn4cc(C5CC5)cc(N5CC(=O)N(CCO)C5=O)c4n3)nc(C3CC3)n2)n1 (stereo partly drawn) [Example 460, (1S,2S)—N-(2-cyclopropyl-6-((1-(6-cyclopropyl-8-(3-(2-hydroxyethyl)-2,4-dioxoimidazolidin-1-yl)imidazo[1,2-a]pyridin-2-yl)ethyl)amino)pyrimidin-4-yl)-2-(4-methylpyrimidin-2-yl)cyclopropane-1-carboxamide] | 1500 to 10000 nM | 1 to 10 nM
10 | Cc1ccnc([C@H]2C[C@@H]2C(=O)Nc2cc(NCc3cn4cc(C5CC5)cc(N5CC(=O)N(C)C5=O)c4n3)nc(C3CC3)n2)n1 [Example 410, (1S,2S)-N-(2-cyclopropyl-6-(((6-cyclopropyl-8-(3-methyl-2,4-dioxoimidazolidin-1-yl)imidazo[1,2-a]pyridin-2-yl)methyl)amino)pyrimidin-4-yl)-2-(4-methylpyrimidin-2-yl)cyclopropane-1-carboxamide] | < 400 nM | < 1 nM
11 | Cc1ccnc([C@H]2C[C@@H]2C(=O)Nc2cc(NCc3cn4cc(C5CC5)cc(N5CC(=O)N(COP(=O)(O)O)C5=O)c4n3)ncn2)n1 [Example 466, (3-(6-cyclopropyl-2-(((6-((1S,2S)-2-(4-methylpyrimidin-2-yl)cyclopropane-1-carboxamido)pyrimidin-4-yl)amino)methyl)imidazo[1,2-a]pyridin-8-yl)-2,5-dioxoimidazolidin-1-yl)methyl dihydrogen phosphate] | 1500 to 10000 nM | < 1 nM
12 | CC(C)(O)c1cc(C2CC2)cn2cc(CNc3ccnc(NC(=O)[C@H]4C[C@@H]4c4cc(Cl)ccc4C#N)c3)nc12 (racemic) [Example 131, rac-(1S*,2S*)-2-(5-chloro-2-cyanophenyl)-N-(4-(((6-cyclopropyl-8-(2-hydroxypropan-2-yl)imidazo[1,2-a]pyridin-2-yl)methyl)amino)pyridin-2-yl)cyclopropane-1-carboxamide] | 10000 to 48000 nM | < 1 nM
13 | Cc1ccnc([C@H]2C[C@@H]2C(=O)Nc2cc(N3C[C@@H](O)C[C@@H]3c3cn4cc([C@H]5C[C@@H]5C)ccc4n3)ncn2)n1 (relative stereo) [Example 470, (1S,2S)-N-(6-((2R,4S)-4-hydroxy-2-(6-((1S*,2S*)-2-methylcyclopropyl)imidazo[1,2-a]pyridin-2-yl)pyrrolidin-1-yl)pyrimidin-4-yl)-2-(4-methylpyrimidin-2-yl)cyclopropane-1-carboxamide] | 1500 to 10000 nM | 1 to 10 nM
14 | Cc1ccnc([C@H]2C[C@@H]2C(=O)Nc2cc(N(C)Cc3cn4cc(C5CC5)cc(N5CC(=O)NC5=O)c4n3)nc(C3CC3)n2)n1 [Example 408, (1S,2S)-N-(2-cyclopropyl-6-(((6-cyclopropyl-8-(2,4-dioxoimidazolidin-1-yl)imidazo[1,2-a]pyridin-2-yl)methyl)(methyl)amino)pyrimidin-4-yl)-2-(4-methylpyrimidin-2-yl)cyclopropane-1-carboxamide] | 400 to 1500 nM | 1 to 10 nM
15 | O=C(Nc1cc(NCc2cn3cc(C4CC4)cc(-c4ccc[nH]c4=O)c3n2)ncn1)[C@H]1C[C@@H]1c1cccc(Cl)c1 [Example 305, (1S,2S)-2-(3-chlorophenyl)-N-(6-(((6-cyclopropyl-8-(2-oxo-1,2-dihydropyridin-3-yl)imidazo[1,2-a]pyridin-2-yl)methyl)amino)pyrimidin-4-yl)cyclopropane-1-carboxamide] | 1500 to 10000 nM | 1 to 10 nM
16 | O=C(Nc1cc(NCc2cn3cc(C4CC4)cc(CO)c3n2)ccn1)[C@H]1C[C@@H]1c1cccc(Cl)c1 [Example 99, (1S,2S)-2-(3-chlorophenyl)-N-(4-(((6-cyclopropyl-8-(hydroxymethyl)imidazo[1,2-a]pyridin-2-yl)methyl)amino)pyridin-2-yl)cyclopropane-1-carboxamide] | 400 to 1500 nM | < 1 nM
17 | O=C(Nc1cc(N(CCO)Cc2cn3cc(C4CC4)ccc3n2)ccn1)[C@H]1C[C@@H]1c1cc(Cl)ccn1 [Example 137, (1S,2S)-2-(4-chloropyridin-2-yl)-N-(4-(((6-cyclopropylimidazo[1,2-a]pyridin-2-yl)methyl)(2-hydroxyethyl)amino)pyridin-2-yl)cyclopropane-1-carboxamide] | 1500 to 10000 nM | < 1 nM
18 | Cc1ccnc([C@H]2C[C@@H]2C(=O)Nc2cc(NCc3cn4cc(C5CC5)cc(N5CC(=O)N(C6COC6)C5=O)c4n3)ncn2)n1 [Example 378, (1S,2S)-N-(6-(((6-cyclopropyl-8-(3-(oxetan-3-yl)-2,4-dioxoimidazolidin-1-yl)imidazo[1,2-a]pyridin-2-yl)methyl)amino)pyrimidin-4-yl)-2-(4-methylpyrimidin-2-yl)cyclopropane-1-carboxamide] | < 400 nM | < 1 nM
19 | COc1nc(NC(=O)[C@H]2C[C@@H]2c2nccc(C)n2)cc(OCc2cn3cc(C4CC4)cc(N4CC(=O)N(C)C4=O)c3n2)n1 [Example 556, (1S,2S)-N-(6-((6-cyclopropyl-8-(3-methyl-2,4-dioxoimidazolidin-1-yl)imidazo[1,2-a]pyridin-2-yl)methoxy)-2-methoxypyrimidin-4-yl)-2-(4-methylpyrimidin-2-yl)cyclopropane-1-carboxamide] | 400 to 1500 nM | < 1 nM
20 | O=C(Nc1cc(NCc2cn3cc(C4CC4)cc(N4CC(F)C4)c3n2)ccn1)[C@H]1C[C@@H]1c1cccc(Cl)c1 [Example 125, (1S,2S)-2-(3-chlorophenyl)-N-(4-(((6-cyclopropyl-8-(3-fluoroazetidin-1-yl)imidazo[1,2-a]pyridin-2-yl)methyl)amino)pyridin-2-yl)cyclopropane-1-carboxamide] | 10000 to 48000 nM | 1 to 10 nM
21 | O=C(Nc1cc(NCc2cn3cc(C4CC4)ccc3n2)cc(O)n1)[C@H]1C[C@@H]1c1cccc(Cl)c1 [Example 611, (1S,2S)-2-(3-chlorophenyl)-N-(4-(((6-cyclopropylimidazo[1,2-a]pyridin-2-yl)methyl)amino)-6-hydroxypyridin-2-yl)cyclopropane-1-carboxamide] | 1500 to 10000 nM | < 1 nM
